The supplement of paper PMC11208160

Assay: recombinant UMI read abundance after kanamycin selection (control-corrected) (log10(CPM+1)); higher = more efficient recombination; extreme values may be limits of the assay; sequences stand for … in AGTGCAGAGAAAATCGGCCAGTTTTCTCTGCCTGCAGTCCGCATGCCGTGGGACCCCTTGGGTTCTAACCTGTTGCCTAGATTTATGCAGCGGACTGCCTTTCTCCCAAAGTGATAAACCGG…AGGTTGGTTTCACT; site = the 11-nt donor
Outline: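 Under IPTG (0.07 mM) plus kanamycin, or without selection, Escherichia coli carrying a UMI-tagged donor and donor-binding-loop pair library and a target plasmid for the IS621 bridge recombinase were plated in two replicates. Recombinant UMIs were PCR-amplified across the donor–target junction and sequenced. Counts were converted to CPM, averaged over replicates, scaled by control-derived factors and reported as log10(CPM+1).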
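Also: IS621 bridge recombinase in Escherichia coli cells against a fixed T5 target plasmid.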

| Sequence | recombinant UMI read abundance (log10) |
| --- | --- |
| AGGACTACATGGACCGGTTTTCCCGGTAATCCGTATTTGGC (site AGGACTACTGG) | 0 |
| AGGACTACATGGACCGGTTTTCCCGGTAATCCGTATTTGGC (site AGGACTACTGT) | 1.61 |
| AGGACTTCATGGACCGGTTTTCCCGGTAATCCGTATTTGAC (site AGGACTACTGT) | 0 |
| AGGACTTCATGGACCGGTTTTCCCGGTAATCCGTATTTGAC (site AGGACTCCTGT) | 0.509 |
| AGGACTTCATGGACCGGTTTTCCCGGTAATCCGTATTTGAC (site AGGACTGCTGT) | 0 |
| AGGACTTCATGGACCGGTTTTCCCGGTAATCCGTATTTGAC (site AGGACTTCTGT) | 2.76 |
| AGGAGGACATGGACCGGTTTTCCCGGTAATCCGTATTTGAA (site AGGAAGACTTG) | 0 |
| AGGAGGACATGGACCGGTTTTCCCGGTAATCCGTATTTGAA (site AGGAGGACTTT) | 2.19 |
| AGGAGGACATGGACCGGTTTTCCCGGTAATCCGTATTTGCC (site AGGAAGACTTG) | 0 |
| AGGAGGACATGGACCGGTTTTCCCGGTAATCCGTATTTGCC (site AGGAGGACTGG) | 1.68 |
| AGGATGACATGGACCGGTTTTCCCGGTAATCCGTATTTGCG (site AGGAAGACTTG) | 0 |
| AGGATGACATGGACCGGTTTTCCCGGTAATCCGTATTTGCG (site AGGATGACTCG) | 2.3 |
| AGGCACGCATGGACCGGTTTTCCCGGTAATCCGTATTTGGG (site AAGCACGCTCC) | 0.371 |
| AGGCACGCATGGACCGGTTTTCCCGGTAATCCGTATTTGGG (site ACGCACGCTCC) | 0.183 |
| AGGCACGCATGGACCGGTTTTCCCGGTAATCCGTATTTGGG (site AGGCACGCTCC) | 1.76 |
| AGGCACGCATGGACCGGTTTTCCCGGTAATCCGTATTTGGG (site ATGCACGCTCC) | 0.0107 |
| AGGCACTCATGGACCGGTTTTCCCGGTAATCCGTATTTGCA (site AGGCACTCTTG) | 2.66 |
| AGGCGAGCATGGACCGGTTTTCCCGGTAATCCGTATTTGCG (site AGGCGAGCTCG) | 2.02 |
| AGGCGTGCATGGACCGGTTTTCCCGGTAATCCGTATTTGGA (site AGGCGTGCTTC) | 0.745 |
| AGGCTAGCATGGACCGGTTTTCCCGGTAATCCGTATTTGTT (site AGACTAGCTAA) | 0.334 |
| AGGCTAGCATGGACCGGTTTTCCCGGTAATCCGTATTTGTT (site AGCCTAGCTAA) | 0.017 |
| AGGCTAGCATGGACCGGTTTTCCCGGTAATCCGTATTTGTT (site AGGCTAGCTAA) | 0.779 |
| AGGCTAGCATGGACCGGTTTTCCCGGTAATCCGTATTTGTT (site AGTCTAGCTAA) | 0.0182 |
| AGGCTGGCATGGACCGGTTTTCCCGGTAATCCGTATTTGTC (site AGGCTGGCTGA) | 0 |
| AGGGAAACATGGACCGGTTTTCCCGGTAATCCGTATTTGCA (site AGGAAGACTTG) | 0.301 |
| AGGGAAACATGGACCGGTTTTCCCGGTAATCCGTATTTGCA (site AGGGAAACTTG) | 1.42 |
| AGGGAACCATGGACCGGTTTTCCCGGTAATCCGTATTTGAT (site AGGGAACCTAT) | 0 |
| AGGGAACCATGGACCGGTTTTCCCGGTAATCCGTATTTGAT (site CGGGAACCTAT) | 0 |
| AGGGAACCATGGACCGGTTTTCCCGGTAATCCGTATTTGAT (site GGGGAACCTAT) | 0 |
